Tests used:
Test in all cases: KINOMEscan competition binding
Conditions in all cases: compound 10.0 µM
ACVR1B (human) = ACVR1B (human) (UniProt P36896)
AKT1 (human) = AKT1 (human) (UniProt P31749)
AURKA (human) = AURKA (human) (UniProt O14965)
CAMK1D (human) = CAMK1D (human) (UniProt Q8IU85)
CDK11B (human) = CDK11B (human) (UniProt P21127)
CDK18 (human) = CDK18 (human) (UniProt Q07002)
CDK7 (human) = CDK7 (human) (UniProt P50613)
CSNK1G2 (human) = CSNK1G2 (human) (UniProt P78368)
CSNK1G3 (human) = CSNK1G3 (human) (UniProt Q9Y6M4)
DMPK (human) = DMPK (human) (UniProt Q09013)
EPHA1 (human) = EPHA1 (human) (UniProt P21709)
EPHB3 (human) = EPHB3 (human) (UniProt P54753)
FGFR2 (human) = FGFR2 (human) (UniProt P21802)
FRK (human) = FRK (human) (UniProt P42685)
INSR (human) = INSR (human) (UniProt P06213)
[1] = test system: KIT (human), P10721 [D816V]
Chain of KIT (human), P10721 [D816V] (P10721 whole entry D816V, looked up): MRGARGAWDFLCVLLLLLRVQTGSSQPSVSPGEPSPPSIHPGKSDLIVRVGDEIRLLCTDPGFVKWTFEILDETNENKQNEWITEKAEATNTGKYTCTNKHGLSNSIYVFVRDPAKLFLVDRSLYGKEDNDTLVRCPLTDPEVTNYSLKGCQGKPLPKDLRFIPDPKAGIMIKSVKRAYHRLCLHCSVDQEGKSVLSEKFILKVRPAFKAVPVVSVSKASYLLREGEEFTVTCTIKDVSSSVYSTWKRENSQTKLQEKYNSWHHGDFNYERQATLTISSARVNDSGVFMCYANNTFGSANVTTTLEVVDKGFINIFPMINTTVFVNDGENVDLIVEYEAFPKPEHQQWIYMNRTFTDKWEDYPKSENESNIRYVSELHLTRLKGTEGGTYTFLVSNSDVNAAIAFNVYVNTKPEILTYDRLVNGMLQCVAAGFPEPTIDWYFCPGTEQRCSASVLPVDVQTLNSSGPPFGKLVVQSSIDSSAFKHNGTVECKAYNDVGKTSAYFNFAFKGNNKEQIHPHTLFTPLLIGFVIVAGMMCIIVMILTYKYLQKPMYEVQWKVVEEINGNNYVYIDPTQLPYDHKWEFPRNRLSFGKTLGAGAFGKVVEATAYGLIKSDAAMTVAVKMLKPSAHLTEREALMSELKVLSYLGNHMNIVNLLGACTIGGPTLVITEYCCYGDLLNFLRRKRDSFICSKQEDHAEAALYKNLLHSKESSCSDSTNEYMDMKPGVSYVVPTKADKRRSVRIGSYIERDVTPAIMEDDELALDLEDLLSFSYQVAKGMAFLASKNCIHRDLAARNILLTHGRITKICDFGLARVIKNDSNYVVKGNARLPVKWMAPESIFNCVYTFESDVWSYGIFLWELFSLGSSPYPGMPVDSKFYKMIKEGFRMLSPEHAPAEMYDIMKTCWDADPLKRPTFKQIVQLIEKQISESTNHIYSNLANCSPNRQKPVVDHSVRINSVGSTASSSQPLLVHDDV

MAP2K2 (human) = MAP2K2 (human) (UniProt P36507)
MAP2K3 (human) = MAP2K3 (human) (UniProt P46734)
MAP3K3 (human) = MAP3K3 (human) (UniProt Q99759)
Chain of MAP3K3 (human) (Q99759 whole entry, looked up): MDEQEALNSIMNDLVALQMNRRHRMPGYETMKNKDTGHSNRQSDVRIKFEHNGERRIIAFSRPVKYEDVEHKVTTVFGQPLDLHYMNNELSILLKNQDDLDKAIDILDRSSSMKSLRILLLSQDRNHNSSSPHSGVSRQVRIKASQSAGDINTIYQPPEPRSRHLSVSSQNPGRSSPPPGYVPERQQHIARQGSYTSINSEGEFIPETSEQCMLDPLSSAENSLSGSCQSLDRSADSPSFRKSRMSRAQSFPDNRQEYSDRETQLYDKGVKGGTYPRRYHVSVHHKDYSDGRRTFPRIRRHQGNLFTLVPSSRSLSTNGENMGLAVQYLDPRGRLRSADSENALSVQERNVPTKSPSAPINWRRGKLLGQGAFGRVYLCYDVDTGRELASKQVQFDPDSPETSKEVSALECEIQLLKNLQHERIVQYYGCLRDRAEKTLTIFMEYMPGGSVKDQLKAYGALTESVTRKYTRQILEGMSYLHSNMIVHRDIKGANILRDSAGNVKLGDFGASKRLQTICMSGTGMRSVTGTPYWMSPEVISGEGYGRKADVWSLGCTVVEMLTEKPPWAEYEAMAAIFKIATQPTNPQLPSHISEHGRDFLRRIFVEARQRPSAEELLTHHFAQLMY

MAP4K5 (human) = MAP4K5 (human) (UniProt Q9Y4K4)
MAPK3 (human) = MAPK3 (human) (UniProt P27361)
Chain of MAPK3 (human) (P27361 whole entry, looked up): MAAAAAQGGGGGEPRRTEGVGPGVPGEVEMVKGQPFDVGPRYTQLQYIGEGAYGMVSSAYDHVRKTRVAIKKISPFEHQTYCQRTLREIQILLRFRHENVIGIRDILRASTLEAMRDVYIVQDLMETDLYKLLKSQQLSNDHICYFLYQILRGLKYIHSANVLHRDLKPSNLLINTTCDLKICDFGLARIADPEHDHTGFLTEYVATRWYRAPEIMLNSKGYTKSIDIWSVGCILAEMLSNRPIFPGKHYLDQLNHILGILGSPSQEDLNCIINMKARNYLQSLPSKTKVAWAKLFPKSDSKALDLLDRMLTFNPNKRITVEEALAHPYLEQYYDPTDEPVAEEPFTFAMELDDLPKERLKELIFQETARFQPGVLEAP

MARK4 (human) = MARK4 (human) (UniProt Q96L34)
Chain of MARK4 (human) (Q96L34 whole entry, looked up): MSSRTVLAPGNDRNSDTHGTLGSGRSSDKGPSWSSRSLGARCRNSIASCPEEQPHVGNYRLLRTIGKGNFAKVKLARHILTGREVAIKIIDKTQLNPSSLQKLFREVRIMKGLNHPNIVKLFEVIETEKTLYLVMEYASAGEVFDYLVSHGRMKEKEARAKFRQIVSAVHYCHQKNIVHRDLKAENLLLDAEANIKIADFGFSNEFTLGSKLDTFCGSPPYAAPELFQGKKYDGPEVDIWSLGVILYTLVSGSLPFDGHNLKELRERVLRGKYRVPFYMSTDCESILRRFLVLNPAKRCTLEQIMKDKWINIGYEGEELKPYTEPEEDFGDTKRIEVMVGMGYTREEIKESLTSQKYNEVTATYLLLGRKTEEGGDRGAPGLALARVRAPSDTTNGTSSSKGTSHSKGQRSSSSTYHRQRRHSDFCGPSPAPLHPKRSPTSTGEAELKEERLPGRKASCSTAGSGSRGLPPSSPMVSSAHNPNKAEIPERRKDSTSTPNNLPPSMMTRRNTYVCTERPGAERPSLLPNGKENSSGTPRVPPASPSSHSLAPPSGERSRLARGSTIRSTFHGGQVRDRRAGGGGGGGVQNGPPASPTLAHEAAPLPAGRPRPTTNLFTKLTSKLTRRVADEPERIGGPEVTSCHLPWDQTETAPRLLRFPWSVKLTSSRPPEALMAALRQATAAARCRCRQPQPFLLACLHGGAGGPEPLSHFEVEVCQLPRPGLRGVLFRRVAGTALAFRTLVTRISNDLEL

MST1R (human) = MST1R (human) (UniProt Q04912)
MST4 (human) = MST4 (human) (UniProt Q9P289)
NLK (human) = NLK (human) (UniProt Q9UBE8)
Chain of NLK (human) (Q9UBE8 whole entry, looked up): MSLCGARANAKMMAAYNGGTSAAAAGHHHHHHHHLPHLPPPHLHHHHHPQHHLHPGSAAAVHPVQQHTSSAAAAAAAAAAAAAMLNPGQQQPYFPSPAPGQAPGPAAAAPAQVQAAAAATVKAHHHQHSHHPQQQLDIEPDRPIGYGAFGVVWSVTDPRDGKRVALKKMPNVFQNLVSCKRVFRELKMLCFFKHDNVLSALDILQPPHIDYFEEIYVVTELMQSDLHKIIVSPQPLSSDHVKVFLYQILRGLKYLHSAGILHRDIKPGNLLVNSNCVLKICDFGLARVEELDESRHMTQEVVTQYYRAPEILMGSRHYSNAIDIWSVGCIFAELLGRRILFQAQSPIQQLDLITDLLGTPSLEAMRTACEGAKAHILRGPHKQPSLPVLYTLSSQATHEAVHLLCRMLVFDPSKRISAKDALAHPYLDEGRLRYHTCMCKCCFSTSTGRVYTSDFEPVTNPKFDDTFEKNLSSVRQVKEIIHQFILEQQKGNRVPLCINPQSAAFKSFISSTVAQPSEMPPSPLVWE

NUAK2 (human) = NUAK2 (human) (UniProt Q9H093)
Chain of NUAK2 (human) (Q9H093 whole entry, looked up): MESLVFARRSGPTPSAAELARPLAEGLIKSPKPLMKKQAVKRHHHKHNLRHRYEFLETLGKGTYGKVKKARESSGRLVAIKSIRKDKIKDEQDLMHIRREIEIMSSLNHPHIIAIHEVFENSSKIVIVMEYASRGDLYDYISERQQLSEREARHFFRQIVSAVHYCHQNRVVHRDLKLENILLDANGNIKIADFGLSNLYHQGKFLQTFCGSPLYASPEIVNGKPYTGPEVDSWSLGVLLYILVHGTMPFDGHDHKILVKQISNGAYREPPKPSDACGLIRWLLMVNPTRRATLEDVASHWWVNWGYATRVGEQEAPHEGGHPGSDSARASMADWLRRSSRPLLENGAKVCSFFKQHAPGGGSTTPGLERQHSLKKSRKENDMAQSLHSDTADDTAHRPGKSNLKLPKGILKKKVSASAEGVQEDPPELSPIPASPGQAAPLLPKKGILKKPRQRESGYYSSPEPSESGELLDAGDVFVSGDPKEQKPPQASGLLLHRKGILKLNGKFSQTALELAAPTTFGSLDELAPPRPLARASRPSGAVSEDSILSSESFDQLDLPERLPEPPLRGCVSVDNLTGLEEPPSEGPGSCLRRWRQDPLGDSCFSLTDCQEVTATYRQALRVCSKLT

PAK6 (human) = PAK6 (human) (UniProt Q9NQU5)
PAK7 (human) = PAK7 (human) (UniProt Q9P286)
PRKAA2 (human) = PRKAA2 (human) (UniProt P54646)
PRKACA (human) = PRKACA (human) (UniProt P17612)
PRKD3 (human) = PRKD3 (human) (UniProt O94806)
RIOK3 (human) = RIOK3 (human) (UniProt O14730)
ROS1 (human) = ROS1 (human) (UniProt P08922)
RPS6KA5 KD1 (human) = RPS6KA5 KD1 (human) (UniProt O75582)
SRPK1 (human) = SRPK1 (human) (UniProt Q96SB4)
SRPK3 (human) = SRPK3 (human) (UniProt Q9UPE1)
Chain of SRPK3 (human) (Q9UPE1 whole entry, looked up): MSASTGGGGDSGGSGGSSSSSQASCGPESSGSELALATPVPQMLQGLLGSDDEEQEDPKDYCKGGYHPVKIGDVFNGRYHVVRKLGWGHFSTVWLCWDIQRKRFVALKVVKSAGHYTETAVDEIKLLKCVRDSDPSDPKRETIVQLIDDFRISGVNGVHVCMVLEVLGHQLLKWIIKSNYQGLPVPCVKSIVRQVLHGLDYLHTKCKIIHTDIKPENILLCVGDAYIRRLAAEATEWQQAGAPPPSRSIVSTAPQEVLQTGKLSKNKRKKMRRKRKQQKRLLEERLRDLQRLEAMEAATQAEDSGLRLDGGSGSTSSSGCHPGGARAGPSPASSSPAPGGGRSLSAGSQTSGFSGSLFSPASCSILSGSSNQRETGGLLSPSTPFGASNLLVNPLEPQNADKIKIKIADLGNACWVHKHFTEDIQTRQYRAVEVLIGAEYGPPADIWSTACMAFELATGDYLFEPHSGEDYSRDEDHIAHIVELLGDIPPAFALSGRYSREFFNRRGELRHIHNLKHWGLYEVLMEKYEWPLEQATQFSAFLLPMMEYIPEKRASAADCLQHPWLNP

STK35 (human) = STK35 (human) (UniProt Q8TDR2)
STK36 (human) = STK36 (human) (UniProt Q9NRP7)
[2] = target: TYK2 JH1 catalytic (human) (UniProt P29597)
WEE1 (human) = WEE1 (human) (UniProt P30291)

Chain of CSNK1G2 (human) (P78368 whole entry, looked up): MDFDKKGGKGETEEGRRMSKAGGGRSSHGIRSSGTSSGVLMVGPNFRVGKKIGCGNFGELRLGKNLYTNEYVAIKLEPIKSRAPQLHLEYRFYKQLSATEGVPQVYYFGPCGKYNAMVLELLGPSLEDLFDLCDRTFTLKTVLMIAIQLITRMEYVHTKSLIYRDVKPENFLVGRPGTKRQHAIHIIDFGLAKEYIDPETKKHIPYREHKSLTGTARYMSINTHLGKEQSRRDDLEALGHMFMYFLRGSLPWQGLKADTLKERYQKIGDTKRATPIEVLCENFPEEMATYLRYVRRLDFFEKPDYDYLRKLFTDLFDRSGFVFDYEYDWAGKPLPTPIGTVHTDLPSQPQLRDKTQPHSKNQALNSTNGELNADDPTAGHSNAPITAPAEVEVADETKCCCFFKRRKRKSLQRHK

Cn1c(=O)n(-c2ccc(C(C)(C)C#N)cc2)c2c3cc(-c4cnc5ccccc5c4)ccc3ncc21
kinase still bound, per cent of control (ACVR1B (human)): 100%
kinase still bound, per cent of control (AKT1 (human)): 100%
kinase still bound, per cent of control (AURKA (human)): 100%
kinase still bound, per cent of control (CAMK1D (human)): 100%
kinase still bound, per cent of control (CDK11B (human)): 100%
kinase still bound, per cent of control (CDK18 (human)): 100%
kinase still bound, per cent of control (CDK7 (human)): 100%
kinase still bound, per cent of control (CSNK1G2 (human)): 100%
kinase still bound, per cent of control (CSNK1G3 (human)): 100%
kinase still bound, per cent of control (DMPK (human)): 100%
kinase still bound, per cent of control (EPHA1 (human)): 100%
kinase still bound, per cent of control (EPHB3 (human)): 100%
kinase still bound, per cent of control (FGFR2 (human)): 100%
kinase still bound, per cent of control (FRK (human)): 100%
kinase still bound, per cent of control (INSR (human)): 100%
kinase still bound, per cent of control [1]: 100%
kinase still bound, per cent of control (MAP2K2 (human)): 100%
kinase still bound, per cent of control (MAP2K3 (human)): 100%
kinase still bound, per cent of control (MAP3K3 (human)): 100%
kinase still bound, per cent of control (MAP4K5 (human)): 100%
kinase still bound, per cent of control (MAPK3 (human)): 100%
kinase still bound, per cent of control (MARK4 (human)): 100%
kinase still bound, per cent of control (MST1R (human)): 100%
kinase still bound, per cent of control (MST4 (human)): 100%
kinase still bound, per cent of control (NLK (human)): 100%
kinase still bound, per cent of control (NUAK2 (human)): 100%
kinase still bound, per cent of control (PAK6 (human)): 100%
kinase still bound, per cent of control (PAK7 (human)): 100%
kinase still bound, per cent of control (PRKAA2 (human)): 100%
kinase still bound, per cent of control (PRKACA (human)): 100%
kinase still bound, per cent of control (PRKD3 (human)): 100%
kinase still bound, per cent of control (RIOK3 (human)): 100%
kinase still bound, per cent of control (ROS1 (human)): 100%
kinase still bound, per cent of control (RPS6KA5 KD1 (human)): 100%
kinase still bound, per cent of control (SRPK1 (human)): 100%
kinase still bound, per cent of control (SRPK3 (human)): 100%
kinase still bound, per cent of control (STK35 (human)): 100%
kinase still bound, per cent of control (STK36 (human)): 100%
kinase still bound, per cent of control [2]: 100%
kinase still bound, per cent of control (WEE1 (human)): 100%

COc1cc(N2CCN(C)CC2)ccc1Nc1nc(N)c(C(=O)c2c(Cl)cccc2Cl)s1
kinase still bound, per cent of control (ACVR1B (human)): 100%
kinase still bound, per cent of control (AKT1 (human)): 100%
kinase still bound, per cent of control (AURKA (human)): 100%
kinase still bound, per cent of control (CAMK1D (human)): 24%
kinase still bound, per cent of control (CDK11B (human)): 5.3%
kinase still bound, per cent of control (CDK18 (human)): 78%
kinase still bound, per cent of control (CDK7 (human)): 2.8%
kinase still bound, per cent of control (CSNK1G2 (human)): 100%
kinase still bound, per cent of control (CSNK1G3 (human)): 79%
kinase still bound, per cent of control (DMPK (human)): 50%
kinase still bound, per cent of control (EPHA1 (human)): 100%
kinase still bound, per cent of control (EPHB3 (human)): 0%
kinase still bound, per cent of control (FGFR2 (human)): 91%
kinase still bound, per cent of control (FRK (human)): 43%
kinase still bound, per cent of control (INSR (human)): 94%
kinase still bound, per cent of control [1]: 92%
kinase still bound, per cent of control (MAP2K2 (human)): 93%
kinase still bound, per cent of control (MAP2K3 (human)): 79%
kinase still bound, per cent of control (MAP3K3 (human)): 76%
kinase still bound, per cent of control (MAP4K5 (human)): 78%
kinase still bound, per cent of control (MAPK3 (human)): 100%
kinase still bound, per cent of control (MARK4 (human)): 82%
kinase still bound, per cent of control (MST1R (human)): 96%
kinase still bound, per cent of control (MST4 (human)): 100%
kinase still bound, per cent of control (NLK (human)): 85%
kinase still bound, per cent of control (NUAK2 (human)): 60%
kinase still bound, per cent of control (PAK6 (human)): 55%
kinase still bound, per cent of control (PAK7 (human)): 63%
kinase still bound, per cent of control (PRKAA2 (human)): 68%
kinase still bound, per cent of control (PRKACA (human)): 91%
kinase still bound, per cent of control (PRKD3 (human)): 70%
kinase still bound, per cent of control (RIOK3 (human)): 100%
kinase still bound, per cent of control (ROS1 (human)): 11%
kinase still bound, per cent of control (RPS6KA5 KD1 (human)): 100%
kinase still bound, per cent of control (SRPK1 (human)): 100%
kinase still bound, per cent of control (SRPK3 (human)): 77%
kinase still bound, per cent of control (STK35 (human)): 100%
kinase still bound, per cent of control (STK36 (human)): 100%
kinase still bound, per cent of control [2]: 90%
kinase still bound, per cent of control (WEE1 (human)): 100%

Cc1cc([C@@H](C)Nc2ccccc2C(=O)O)c2nc(N3CCOCC3)cc(=O)n2c1
kinase still bound, per cent of control (ACVR1B (human)): 93%
kinase still bound, per cent of control (AKT1 (human)): 100%
kinase still bound, per cent of control (AURKA (human)): 100%
kinase still bound, per cent of control (CAMK1D (human)): 100%
kinase still bound, per cent of control (CDK11B (human)): 100%
kinase still bound, per cent of control (CDK18 (human)): 100%
kinase still bound, per cent of control (CDK7 (human)): 97%
kinase still bound, per cent of control (CSNK1G2 (human)): 88%
kinase still bound, per cent of control (CSNK1G3 (human)): 100%
kinase still bound, per cent of control (DMPK (human)): 100%
kinase still bound, per cent of control (EPHA1 (human)): 100%
kinase still bound, per cent of control (EPHB3 (human)): 100%
kinase still bound, per cent of control (FRK (human)): 83%
kinase still bound, per cent of control (INSR (human)): 100%
kinase still bound, per cent of control [1]: 81%
kinase still bound, per cent of control (MAP2K2 (human)): 100%
kinase still bound, per cent of control (MAP2K3 (human)): 100%
kinase still bound, per cent of control (MAP3K3 (human)): 87%
kinase still bound, per cent of control (MAP4K5 (human)): 96%
kinase still bound, per cent of control (MAPK3 (human)): 95%
kinase still bound, per cent of control (MARK4 (human)): 100%
kinase still bound, per cent of control (MST4 (human)): 100%
kinase still bound, per cent of control (NLK (human)): 94%
kinase still bound, per cent of control (NUAK2 (human)): 84%
kinase still bound, per cent of control (PAK6 (human)): 93%
kinase still bound, per cent of control (PAK7 (human)): 99%
kinase still bound, per cent of control (PRKAA2 (human)): 88%
kinase still bound, per cent of control (PRKACA (human)): 100%
kinase still bound, per cent of control (PRKD3 (human)): 100%
kinase still bound, per cent of control (RIOK3 (human)): 100%
kinase still bound, per cent of control (ROS1 (human)): 100%
kinase still bound, per cent of control (RPS6KA5 KD1 (human)): 81%
kinase still bound, per cent of control (SRPK1 (human)): 100%
kinase still bound, per cent of control (SRPK3 (human)): 100%
kinase still bound, per cent of control (STK35 (human)): 95%
kinase still bound, per cent of control (STK36 (human)): 100%
kinase still bound, per cent of control [2]: 82%
kinase still bound, per cent of control (WEE1 (human)): 100%
